These results are taken from US9155804B2, “Contrast enhancement agents and method of use thereof” (General Electric Company, priority 2012, dated 2015).

In data set [1] the test system is MATBIII breast cancer cells. In words: Dynamic contrast enhanced MR tumor imaging in MATBIII tumor bearing mice. The class given is in vivo, SCID mice. The note with it: DCE MR, dose 0.2 mmol/kg Gd, Fe, mammary MBIII rodent tumor model. On the procedure: Cell Preparation: MATBIII breast cells (available from ATCC®) were trypsinized using 1× trypsin-EDTA. The cells were washed using IX phosphate buffered saline (PBS) and aliquots of 2×10^6 cells were made in 1×PBS (100 uL). Prior to injection into the subject, 50 μL of basement membrane matrix (Matrigel®, BD Biosciences) was added to each aliquot.
Tumor Induction: All procedures involving animals were completed under protocols approved by the GE Global Research Institutional Animal Care and Use Committee. Female, 5-7 weeks old, SCID mice (Charles River Laboratories) were briefly anesthetized with 2% isoflurane and injected with 1×10^6 MATBIII breast cancer cells in 1×PBS (100 μL) and Matrigel SC to their left flank. The animals were monitored for 7 days post tumor cell injections at which point, precontrast agent MR images of the resulting lesions, typically 1 cm in diameter, were collected using the sequences described below.

Data set [2] is described as follows: Hydrodynamic size assay (dynamic light scattering). Type of data set: physicochemical. On the procedure: The dilution was carried out to yield approximately 20,000 counts per second during the DLS measurement and the sample was allowed to equilibrate for 10 minutes in the instrument prior to data collection.

SMILES strings stand for the structures.

Regarding `CNC[C@H](O)[C@@H](O)[C@H](O)[C@H](O)CO.CNC[C@H](O)[C@@H](O)[C@H](O)[C@H](O)CO.O=C([O-])CN(CCN(CC(=O)[O-])CC(=O)O)CCN(CC(=O)[O-])CC(=O)O.[Gd+3]` [Magnevist - Gd], the “Tumor-to-muscle signal enhancement ratio (Tumor: Muscle), Average” value in data set [1] turned out to be 3.6. Also, in data set [2], the “Agent size (hydrodynamic diameter)” value is “Magnevist - Gd (1 nm)”.
